Tested on: guinea pigs
Test: Effect on the flow rate of urine in guinea pigs, single or combined use, Experimental Example 4
Assay type: in vivo, Hartley male guinea pigs
Excerpt: Effect on the flow rate of urine by single or combined use of Compounds of Reference Examples, distigmine, prazosin, and tamsulosin was examined using Hartley male guinea pigs. Four to six Hartley male guinea pigs weighing about 350 g (SLC) were employed in each treated group. Guinea pigs were anesthetized with urethane, and held, and the bladder was exposed. Two polyethylene tubes (PE-100) were inserted into the bladder. One of the tubes was used in infusion of physiological saline, and the other used for measurement of the internal pressure of the bladder. Saline was infused continuously at a flow rate of 0.3 mL/min. The infusion was stopped at the time when intermittent urination was confirmed at least 3 times, and the whole saline in bladder was removed. Again, infusion was started, and stopped at the time when a rise of the pressure in bladder was confirmed immediately before urination. Excreted urine was weighed on an electronic force balance (HX-400, A&D). Analogue data of the internal pressure of the bladder and urine weight were input in an AD converter (MP-30, Biopac Systems) and the digital signal was analyzed by means of purpose-made software (Student lab pro 2.1.5, Biopac Systems). Sampling interval of the date was fixed at 0.1 second, and the value of urine weight was differentiated to determine the flow rate of urine. In order to remove data noise of the excretion volume and flow rate of urine, the data was adapted to a lowcut filter at 0.5 Hz.
Measurement was made 2 times before administration of the test compound, and then the test compound was administered intravenously. Again, measurement was made 10 minutes after administration of the test compound.
The average measured value before administration of the test compounds was regarded as the value before administration, and the rate of change of the values from the ante-administration to the post-administration was calculated to compare between the groups by means of the Dunnet's test.

CN(CCCCCCN(C)C(=O)Oc1ccc[n+](C)c1)C(=O)Oc1ccc[n+](C)c1 [Distigmine, reference compound]
improvement of the flow rate of urine (in words) (conclusion from Tables 8 and 9, alone and in combination with α-blockers): poor and not enhanced even in combination with an α-blocker prazosin
Flow Rate (mL/sec) Ante-admn. (guinea pig, distigmine 1.0 mg/kg i.v. group, before administration (Table 8)): 0.25 ± 0.05 mL/s
Flow Rate (mL/sec) Post-admn. (guinea pig, distigmine 1.0 mg/kg i.v., 10 minutes after administration (Table 8)): 0.22 ± 0.05 mL/s
Improvement (%) (guinea pig, distigmine 1.0 mg/kg i.v., 10 minutes after administration, control DMSO (Table 8)): −8.31 ± 11.13%
